Results published in article PMC4951196, “The Lamin B receptor is essential for cholesterol synthesis and perturbed by disease-causing mutations” (eLife, 2016).
pKd: −log10 of the molar value.

Biological target: T1, Lamin B receptor (LBR) (Homo sapiens, UniProt Q14739)
T1 construct: Flag-tagged LBR, WT, expressed in Expi293 cells and purified
T1 sequence (Q14739 1-615): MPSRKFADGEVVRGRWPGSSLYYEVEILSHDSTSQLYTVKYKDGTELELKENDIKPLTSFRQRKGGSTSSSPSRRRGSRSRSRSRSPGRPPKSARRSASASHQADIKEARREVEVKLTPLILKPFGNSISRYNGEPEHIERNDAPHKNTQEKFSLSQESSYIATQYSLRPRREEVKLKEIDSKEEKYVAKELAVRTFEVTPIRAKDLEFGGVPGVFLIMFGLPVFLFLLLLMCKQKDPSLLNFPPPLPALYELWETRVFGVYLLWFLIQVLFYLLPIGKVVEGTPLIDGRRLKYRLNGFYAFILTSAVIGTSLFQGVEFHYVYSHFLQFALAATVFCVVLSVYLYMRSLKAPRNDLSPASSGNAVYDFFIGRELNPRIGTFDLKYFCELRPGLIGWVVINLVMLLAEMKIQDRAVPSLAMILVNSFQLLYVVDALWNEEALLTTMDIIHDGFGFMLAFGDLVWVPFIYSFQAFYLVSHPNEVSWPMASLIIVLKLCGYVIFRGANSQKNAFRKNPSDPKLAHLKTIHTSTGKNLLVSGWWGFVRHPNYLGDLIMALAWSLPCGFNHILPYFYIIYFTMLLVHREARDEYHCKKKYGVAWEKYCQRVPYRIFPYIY
Assay: intrinsic tryptophan fluorescence titration of purified LBR
Format: binding

- pKd: 4.62
SMILES: NC(=O)C1=CN([C@@H]2O[C@H](COP(=O)(O)OP(=O)(O)OC[C@H]3O[C@@H](n4cnc5c(N)ncnc54)[C@H](OP(=O)(O)O)[C@@H]3O)[C@@H](O)[C@H]2O)C=CC1 [NADPH]
